# Measured values taken from patent US5874471A, “Orthomolecular medical use of L-citrulline for vasoprotection, relaxative smooth muscle tone and cell protection” (priority 1997, dated 1999).
# Like-named read-outs stand apart in the source and are kept apart here.
# Tests used:
# [1] = system: migraine aura; conditions: inhalation of small amounts, some cases; cited from earlier work
# [2] = system: muscle fatigue; conditions: oral daily supplementation, healthy humans; cited from earlier work
# [3] = system: hippocampal brain tissue; conditions: extracellular creatine increased by 3 mM; cited from earlier work
# [4] = system: human platelets; conditions: cited from earlier work; for inhibition of L-arginine uptake into platelets: 300 μM extracellular concentration, L-arginine 30 μM
# [5] = system: renal vasodilatory responses; conditions: aged compared to young hypertensives; cited from earlier work
# [6] = parenteral injection, rats; cited from earlier work
# [7] = system: spermatocytes of infertile men; conditions: 4 to 20 grams of arginine daily, oral; cited from earlier work
# [8] = system: uterine muscle strips from gravid rats; conditions: L-arginine added to extracellular fluid; cited from earlier work
# [9] = system: endothelium-dependent vasodilation; conditions: L-arginine infusion, humans with hypercholesterolemia; cited from earlier work
# [10] = cited from earlier work
# [11] = system: experimental diabetes mellitus; conditions: long-term oral administration in marked amounts; cited from earlier work
# [12] = system: human semen specimens with low motility; conditions: between 1.0 and 4.0 mM, in vitro; cited from earlier work
# [13] = system: hypercholesterolemic rabbit models; conditions: sixfold enrichment of dietary L-arginine; cited from earlier work
# [14] = system: activated c-NOS; conditions: plasma L-arginine above normal fasting 75 to 90 μM; cited from earlier work
# [15] = system: cortical spreading depression; conditions: rat, in vivo; cited from earlier work
# [16] = system: apoptosis; conditions: L-arginine-deficient (10 μM) environment; cited from earlier work
# [17] = rat; cited from earlier work
# [18] = system: migraine pains; experiment: Migraine pain with oral L-citrulline; type: in vivo, human
# Procedure: […] Their body weight was 59 kg. The subject gave a history of migraine pains with and without aura for about 15 years. Currently, the migraine pains were recurring about once to a few times weekly. Their parent had experienced migraine headaches for many years.
# Shortly after the onset of a severe headache attack, the subject ingested 2.7 grams of L-citrulline, followed by another 2.7 grams about 1 hour later.
# (§1) Subsequently, the person cited in Example 4 followed an oral regimen of 3.6 grams of L-citrulline daily in two subdoses of 1.8 grams (morning and evening) for seven weeks. The frequency and intensity of the migraine pain episodes were reduced over this interval.
# [19] = Total forearm bleeding time during oral L-citrulline; type: in vivo, human
# Procedure: The same subject that was studied in Example 1 was studied by total bleeding time determinations before and during ingestion of daily doses of L-citrulline, in two divided subdoses. Forearm bleeding times were done by 3 to 5 mm cuts about 1 mm deep made perpendicular to the fold of the elbow during template methodology and a sphygmomanometer cuff maintained near 40 mm Hg pressure. Control bleeding times were 51/2 minutes. Bleeding time rose to 131/2 minutes after 2 days of ingestion of 8.5 grams daily. Bleeding time was prolonged at 13 minutes after 4 weeks of ingestion of 5.4 grams of L-citrulline daily in 2 divided doses.
# [20] = in vivo; cited from earlier work
# [21] = Plasma ultrafiltrate L-arginine level after oral L-citrulline (colorimetric assay); type: in vivo, human
# Procedure: The one FIGURE contains graphs of plasma ultrafiltrate levels of L-arginine in the fasting state (9-10 hours) related to the daily amounts of L-citrulline ingested in two divided doses. Also depicted are levels 2-hours after ingestion of morning doses of L-citmulline (EXAMPLE 1).
# A novel colorimetric method for the quantitative assay of free L-arginine in blood plasma was developed. The method measures the color product from monosubstituted guanidines without and with L-arginase incubation to destroy the arginine and the potential guanido color product that would be derived from L-arginine. The photometric decrease in guanido color product measures specifically the concentration of L-arginine. The L-arginine methodology was applied to ultrafiltrates of blood plasma after ultrafiltrations of separated plasma samples were done at 4° Celsius.
# Blood plasma levels after 9 to 10 hours of overnight fasting averaged 83.0±1.1 μM (mean±SD of 3 determinations). Two hours after ingestion of 3.0 grams of L-citrulline in capsular form, plasma L-arginine level rose by […] to 132.7 μM. Overnight fasting plasma levels of L-arginine measured 125.2, 98.1, 90.8, 114.2, and 120.0 μM after ingestion of L-citrulline for 6 days at 6.0 grams, for 13 days at 2.4 grams, for 6 days at 3.4 grams, for 7 days at 6.8 grams, and for 2 days at 8.5 grams, respectively, in 2 divided doses (morning and nightly).
# (§2) The subject cited in Example 1 and Example 2 above subsequently undertook oral supplementation with 4.5 grams of L-citrulline daily in 2 divided doses (morning and nightly) of 1.8 grams (in 2 capsules) and 2.7 grams (in 3 capsules) for 4 months. They continued their usual food intake. At the end of the 4-month period of supplementation with 4.5 grams daily, […] 9-hour overnight fasting plasma concentration of L-arginine measured at 102.3 μM, assayed in plasma within 30 minutes of venous blood sampling. This increased fasting plasma level contrasted from their lower normal fasting values of 83.0±1.1 μM measured months before, an increment about 20 μM greater.
# [22] = rat, in vivo; cited from earlier work
# [23] = Tolerability of oral L-citrulline (symptoms, blood count, serum chemistry); type: in vivo, human
# Text: as §1, §2
# (§3) The apparent nootropic effects from oral intake of L-citrulline are consistent with the inventive beneficial effects of L-citrulline as exogenous precursor in order to improve brain functions that may be mediated by enhanced L-arginine, creatine, and phosphocreatine stores within the central nervous system.
# [24] = system: lacunar infarction; experiment: Recurrence of symptomatic lacunar infarction on daily citrulline; type: in vivo, human; conditions: 4.5 grams daily in two subdoses for many months
# Text: Aspirin in small daily doses is commonly recommended as antiplatelet and antithrombotic agent in cardiovascular disease, particularly for the secondary prevention of coronary artery thrombosis and myocardial infarction, and for cerebrovascular ischemic manifestations such as lacunar infarctions. This subject had experienced, five-years earlier, an acute episodic event of symptomatic lacunar infarction with virtual recovery.
# [25] = system: brain functions; experiment: Mental alertness, intellectual performance and mental fatigue on L-citrulline; type: in vivo, human; conditions: 4.5 grams daily, 4 months
# Procedure: as §2, §3
# [26] = system: osteoporosis; conditions: oral supplements in large amounts; cited from earlier work
# [27] = system: platelet activity; conditions: cited from earlier work; for total bleeding time: low-dose / small therapeutic doses orally, humans
# [28] = system: rabbit model of angioplasty; conditions: L-arginine hydrochloride 2.25% in drinking water; cited from earlier work
# [29] = 4-month regimen of 4.5 grams daily
smiles,measurement,setting,value
CCCCCON=O [amyl nitrite],migraine aura,[1],temporarily reversed migraine aura in some cases
CN(CC(=O)O)C(=N)N [creatine],muscle fatigue with physical exercise,[2],lessened muscle fatigue
same,muscle stores of free creatine and phosphocreatine,[2],greater muscle stores
same,ATP levels,[3],without change in ATP levels
same,anoxia-induced neuronal damage,[3],attenuated
same,neurocyte viability after anoxic periods,[3],greater neurocyte viabilities
same,neuronal free creatine and phosphocreatine levels,[3],large increases
NCCCC[C@H](N)C(=O)O [L-lysine],inhibition of L-arginine uptake into platelets,[4],inhibitory
N=C(N)NCCC[C@H](N)C(=O)O [L-arginine],renal vasodilatory responses,[5],blunted in aged compared to young hypertensives
same,time for plasma and tissue concentrations to return to normal,[6],2 to 3 h
same,total sperm counts and motility rates,[7],may improve total sperm counts and motility rates
same,muscle relaxation and quiescence,[8],"dose-dependent muscle relaxation, and muscle quiescence"
same,Km,[4]; read-out: apparent Km for uptake into human platelets,26 ± 4 µM
same,impaired endothelium-dependent vasodilation,[9],corrected
same,time to return to near fasting values,"[10]; 24.8 grams L-arginine, normal adults",3 h
same,peak plasma arginine relative to fasting values,"[10]; 24.8 grams L-arginine, fasting 90±6 μM",about 3.6 times
same,plasma citrulline levels,"[10]; oral 3-gram single doses of arginine, healthy humans",without a change in plasma citrulline levels
same,plasma arginine levels,"[10]; oral 3-gram single doses, healthy humans",raises plasma arginine levels acutely
same,time of peak plasma arginine,[10]; single protein meal of about 30 to 50 grams (about 1 to 2 grams arginine),2 to 3 h
same,time to return to near fasting levels,[10]; single protein meal of about 30 to 50 grams,5 to 6 h
same,glomerular hyperfiltration and abnormal filtration fraction hemodynamics,[11],prevents the glomerular hyperfiltration
same,proteinuria,[11],ameliorates the proteinuria
same,sperm motility,[12],enhances sperm motility in a concentration-dependent manner
same,endothelial adhesiveness and atherogenesis,[13],markedly inhibits endothelial adhesiveness and atherogenesis
same,increase in plasma arginine levels,[13],twofold increase
same,nitric oxide-dependent vasodilation,[13],improves nitric oxide-dependent vasodilation
same,endothelial nitric oxide production,[14],augments endothelial nitric oxide production
same,oligemic vasoconstriction following cortical spreading depression,[15],reduces the oligemic vasoconstriction
same,protection from apoptosis,[16],protects cells from apoptosis
same,brain tissue arginine level relative to plasma levels,[17],20 to 30%
NCCC[C@H](N)C(=O)O [L-ornithine],inhibition of L-arginine uptake into platelets,[4],inhibitory
NC(=O)CC[C@H](N)C(=O)O [L-glutamine],inhibition of L-arginine uptake into platelets,[4],inhibitory
NC(=O)NCCC[C@H](N)C(=O)O [L-citrulline],migraine pain intensity and duration,[18]; 2.7 grams at onset plus 2.7 grams about 1 hour later,markedly lessened in intensity and in duration
same,nausea during migraine attack,[18]; 2.7 grams plus 2.7 grams about 1 hour later,Much less nausea
same,frequency and intensity of migraine pain episodes,"[18]; 3.6 grams daily in two subdoses, seven weeks",reduced
same,bleeding time,"[19]; after 2 days of 8.5 grams daily, control 51/2 minutes",131/2
same,prolongation of total bleeding time,[19]; daily doses of 5.4 grams to 8.5 grams,about two-fold
same,blood-brain barrier passage,[20],readily passes the blood-brain barrier
same,increment in fasting plasma L-arginine,[21]; 4 months at 4.5 grams daily vs 83.0±1.1 μM before,about 20 μM
same,metabolic adaptation to long-continued supplementation,"[21]; 4 months, 4.5 grams daily",no significant metabolic adaptation
same,elevation of plasma L-arginine versus equivalent L-arginine or protein meals,[21]; comparison with literature,more efficient and longer lasting
same,blood plasma levels of L-arginine after overnight fasting (general statement),"[21]; daily dosage in two divided subdoses, 9 to 10 hours fasting",greater blood plasma levels of L-arginine even after overnight fasting
same,blood plasma concentrations of free L-arginine (general statement),[21]; single oral doses of 3.0 grams or more in capsules,promptly raised to much higher levels
same,plasma L-arginine level rise,"[21]; two hours after 3.0 grams L-citrulline in capsules, person, 102 kg, fasting 83.0±1.1 μM before",62.4%
same,liver uptake in portal venous blood,[22],Without appreciable liver uptake
same,adverse side-effects,"[23]; 3.6 grams daily for seven weeks, person",No adverse side-effects
same,adverse symptoms,[23]; [29],No adverse symptoms
same,complete blood count and blood serum chemistry tests,[23]; [29],remained normal
same,adverse symptoms or untoward signs,"[23]; Example 1 study, several weeks",No adverse symptoms or untoward signs
same,recurrence of lacunar infarction,[24],No manifestations of recurrence
same,mental alertness and intellectual performance,[25],enhanced
same,mental fatigue,[25],less mental fatigue
O=C(O)O [calcium carbonate],skeletal bone loss in osteoporosis,[26],decreased the skeletal bone loss
"CC(=O)Oc1ccccc1C(=O)O [aspirin, acetylsalicylic acid]",total bleeding time,[27],prolonged
same,total bleeding time,[27]; listed as acetylsalicylic acid (aspirin),prolongs the total bleeding time
same,platelet activity,[27]; low-dose intake in humans,inhibits platelet activity
Cl.N=C(N)NCCC[C@H](N)C(=O)O [L-arginine hydrochloride],arterial thickening,[28],reduced thickening
same,increase of plasma arginine levels,[28],about 2.6 times
same,neoendothelium-dependent arterial muscle relaxation,[28],enhanced neoendothelium-dependent arterial muscle relaxation
